# Laboratory results from publication PMC6332508, “A Promising PET Tracer for Imaging of α7 Nicotinic Acetylcholine Receptors in the Brain: Design, Synthesis, and in Vivo Evaluation of a Dibenzothiophene-Based Radioligand” (Molecules, 2015).
# “And” between values parts separate entries of the source, which are not always exact repeats. Equal values may be shown once.
# Test system: α7 nAChR
# Test: Dynamic PET studies in piglets with kinetic modelling (2TCM)
# Format: in vivo
# Settings: for BPND / Rate Constant K1 / Rate Constant k2 / Rate Constant k3 / Rate Constant k4 / VND: piglet brain, 240 min scan data
# Method: One-tissue and two-tissue compartment models (1TCM and 2TCM) were evaluated for mathematical description of [^18F]10a time-activity curves (TACs) in pig brain regions (Figure 3) using metabolite-corrected arterial plasma input functions. The 2TCM was identified as the more appropriate model based on its smaller Akaike information criterion (AIC) value. The four rate constants K1, k2, k3, and k4 were fitted and the non-displaceable volume of distribution (VND = K1/k2) and the binding potential (BPND = k3/k4) as defined by Innis et al. were calculated for each region of interest (Table 3 and Table 4).
# Six female animals were used in this study with anesthesia and surgery performed as described previously. In brief, the animals received initially a premedication with midazolam (1 mg∙kg^−1 i.m.) followed by induction of anesthesia with 3% isoflurane in 70% N2O/30% O2. All incision sites were infiltrated with 1% lidocaine, and the anesthesia was maintained with 1.5% isoflurane throughout the surgical procedure. A central venous catheter was introduced through the left external jugular vein and used for the administration of the radiotracer and drugs, and for volume substitution with heparinized (50 IE∙mL^−1) lactated Ringer’s solution (2 mL∙kg^−1∙h^−1). An endotracheal tube was inserted by tracheotomy for artificial ventilation (Servo Ventilator 900C, Siemens-Elema, Solna, Sweden) after immobilization with pancuronium bromide (0.2 mg∙kg^−1∙h^−1). The artificial ventilation was adjusted to obtain normoxia and normocapnia (Radiometer ABL 500, Copenhagen, Denmark). Polyurethane catheters (i.d., 0.5 mm) were advanced through the left and the right femoral arteries into the abdominal aorta to withdraw arterial blood samples for regular monitoring of blood gases and for radiotracer input function measurements and metabolite analyses. The body temperature was monitored by a rectal temperature probe and maintained at ~38 °C by a heating pad. After the surgical procedure has been completed, anesthesia was maintained with 0.5% isoflurane in 70% N2O/30% O2, and the animals were allowed to stabilize for 1 h before imaging procedure.
# PET imaging was performed according to the protocol described recently. In brief, a clinical tomograph (ECAT Exact HR+; Siemens Healthcare GmbH, Erlangen, Germany) was used with animals lying prone with the head placed in a custom-made head holder. For attenuation and scatter correction, transmission scans were acquired using three rotating ^68Ge rod sources. The radiotracer was injected as an intravenous (i.v.) bolus (10 mL saline with 340–494 MBq [^18F]10a) by a syringe pump within 2 min followed by flushing with 10 mL heparinized saline (50 IE∙mL^−1). PET scanning started at the time of injection (0 min) and dynamic emission data were acquired for a total of 240 min. Three animals were investigated under baseline conditions, and another three under blocking conditions with administration of 3 mg∙kg^−1 i.v. of the α7 nAChR partial agonist NS6740 at 3 min before radiotracer injection followed by a continuous infusion throughout the scan (1 mg∙kg^−1∙h^−1).
# Arterial blood was sampled using a peristaltic pump during the first 20 min of the scan followed by manual sampling at 25, 30, 40, 50, 60, 90, 120, 150, 180, 210, and 240 min after injection. Plasma was obtained by centrifugation (13,000 rpm, 2 min at 21 °C) and total radioactivity concentration was measured using a gamma-counter (1470 Wizard; PerkinElmer, Shelton, CT, USA) cross-calibrated to the PET scanner. In addition, arterial whole blood was sampled manually at 4, 16, 30, 60, and 120 min p.i. and plasma obtained for metabolite analyses to determine the fraction of non-metabolized [^18F]10a.
# The plasma input function was corrected for the presence of radioactive metabolites by determination of the parent fraction as described previously. […]
# [1] = Cerebellum, blocking (NS6740), n = 3
# [2] = Colliculi, blocking (NS6740), n = 3
# [3] = Frontal Cortex, baseline, n = 3
# [4] = Frontal Cortex, blocking (NS6740), n = 3
# [5] = Hippocampus, blocking (NS6740), n = 3
# [6] = Midbrain, blocking (NS6740), n = 3
# [7] = Occipital Cortex, baseline, n = 3
structure (smiles),measurement,setting,value
O=S1(=O)c2ccc([18F])cc2-c2ccc(N3CCN4CCC3CC4)cc21 [[^18F]10a],increase of VND under blocking conditions,NS6740 vs baseline,up to 4 fold
same,time of peak concentrations of radioactivity in the brain,"baseline, i.v., n = 3",8–10 min p.i.
same,SUVmax,"baseline, other brain regions",1.9–2.1
same,SUVmax,"baseline, thalamus, colliculi, and midbrain",> 2.2
same,BPND,"Cerebellum, baseline, n = 3",2.5 and 2.53 ± 0.57
same,Rate Constant K1,"Cerebellum, baseline, n = 3",0.421 ± 0.048 mL·cm^−3·min^−1
same,Rate Constant k2,"Cerebellum, baseline, n = 3",0.131 ± 0.052 min⁻¹
same,Rate Constant k3,"Cerebellum, baseline, n = 3",0.067 ± 0.051 min⁻¹
same,Rate Constant k4,"Cerebellum, baseline, n = 3",0.026 ± 0.020 min⁻¹
same,VND,"Cerebellum, baseline, n = 3",3.62 ± 1.47
same,BPND,[1],0.71 ± 1.10
same,Rate Constant K1,[1],0.711 ± 0.148 mL·cm^−3·min^−1
same,Rate Constant k2,[1],0.076 ± 0.014 min⁻¹
same,Rate Constant k3,[1],0.016 ± 0.019 min⁻¹
same,Rate Constant k4,[1],0.011 ± 0.016 min⁻¹
same,VND,[1],9.75 ± 3.57
same,BPND,"Colliculi, baseline, n = 3",2.68 ± 1.42
same,Rate Constant K1,"Colliculi, baseline, n = 3",0.450 ± 0.072 mL·cm^−3·min^−1
same,Rate Constant k2,"Colliculi, baseline, n = 3",0.134 ± 0.074 min⁻¹
same,Rate Constant k3,"Colliculi, baseline, n = 3",0.070 ± 0.042 min⁻¹
same,Rate Constant k4,"Colliculi, baseline, n = 3",0.027 ± 0.018 min⁻¹
same,VND,"Colliculi, baseline, n = 3",4.19 ± 2.37
same,BPND,[2],0.73 ± 0.74
same,Rate Constant K1,[2],0.735 ± 0.182 mL·cm^−3·min^−1
same,Rate Constant k2,[2],0.066 ± 0.007 min⁻¹
same,Rate Constant k3,[2],0.011 ± 0.013 min⁻¹
same,Rate Constant k4,[2],0.007 ± 0.015 min⁻¹
same,VND,[2],11.41 ± 3.90
same,BPND,[3],4.22 ± 2.93
same,Rate Constant K1,[3],0.387 ± 0.059 mL·cm^−3·min^−1
same,Rate Constant k2,[3],0.182 ± 0.153 min⁻¹
same,Rate Constant k3,[3],0.142 ± 0.165 min⁻¹
same,Rate Constant k4,[3],0.027 ± 0.015 min⁻¹
same,VND,[3],3.32 ± 2.06
same,BPND,[4],0.86 ± 0.92
same,Rate Constant K1,[4],0.647 ± 0.117 mL·cm^−3·min^−1
same,Rate Constant k2,[4],0.055 ± 0.011 min⁻¹
same,Rate Constant k3,[4],0.014 ± 0.019 min⁻¹
same,Rate Constant k4,[4],0.010 ± 0.020 min⁻¹
same,VND,[4],12.34 ± 4.27
same,BPND,"Hippocampus, baseline, n = 3",5.5 and 5.50 ± 1.01
same,Rate Constant K1,"Hippocampus, baseline, n = 3",0.400 ± 0.023 mL·cm^−3·min^−1
same,Rate Constant k2,"Hippocampus, baseline, n = 3",0.188 ± 0.083 min⁻¹
same,Rate Constant k3,"Hippocampus, baseline, n = 3",0.145 ± 0.101 min⁻¹
same,Rate Constant k4,"Hippocampus, baseline, n = 3",0.025 ± 0.013 min⁻¹
same,VND,"Hippocampus, baseline, n = 3",2.43 ± 0.96
same,BPND,[5],0.84 ± 1.70
same,Rate Constant K1,[5],0.603 ± 0.118 mL·cm^−3·min^−1
same,Rate Constant k2,[5],0.063 ± 0.023 * min^−1
same,Rate Constant k3,[5],0.024 ± 0.030 min⁻¹
same,Rate Constant k4,[5],0.011 ± 0.015 min⁻¹
same,VND,[5],10.81 ± 5.02
same,BPND,"Midbrain, baseline, n = 3",3.40 ± 1.73
same,Rate Constant K1,"Midbrain, baseline, n = 3",0.436 ± 0.045 mL·cm^−3·min^−1
same,Rate Constant k2,"Midbrain, baseline, n = 3",0.162 ± 0.117 min⁻¹
same,Rate Constant k3,"Midbrain, baseline, n = 3",0.121 ± 0.132 min⁻¹
same,Rate Constant k4,"Midbrain, baseline, n = 3",0.029 ± 0.022 min⁻¹
same,VND,"Midbrain, baseline, n = 3",4.04 ± 3.06
same,BPND,[6],0.61 ± 0.77
same,Rate Constant K1,[6],0.685 ± 0.131 mL·cm^−3·min^−1
same,Rate Constant k2,[6],0.063 ± 0.010 min⁻¹
same,Rate Constant k3,[6],0.013 ± 0.014 min⁻¹
same,Rate Constant k4,[6],0.012 ± 0.018 min⁻¹
same,VND,[6],11.17 ± 3.64
same,BPND,[7],3.16 ± 1.11
same,Rate Constant K1,[7],0.395 ± 0.053 mL·cm^−3·min^−1
same,Rate Constant k2,[7],0.123 ± 0.063 min⁻¹
same,Rate Constant k3,[7],0.099 ± 0.087 min⁻¹
same,Rate Constant k4,[7],0.030 ± 0.023 min⁻¹
